Experimental data taken from patent publication US20100248226A1, “METHODS FOR MEASURING CELL RESPONSE TO DNA DAMAGING AGENTS USING PROMYELOCYTIC LEUKEMIA PROTEIN NUCLEAR BODIES” (priority 2006, published 2010).
Where two headings read alike, the source gives them in different places.

Legend:
[1] = tested on: PML NBs in NHDF cell line GM05757; assay: Kinase inhibitor effect on the PML NB number increase in response to DSBs; type: cell-based, human
Text: (§1) Cell Culture and drug treatments. Cell lines used in this study: NDHFs (GM05757, Coriell Cell Repository); human AT fibroblasts (a.k.a. AT5B1, GM05823; Coriell); human NBS-T fibroblasts (gift of J. Lukas, Danish Cancer Society, Copenhagen, Denmark); human ATLD fibroblasts (gift of Y. Shiloh, Tel Aviv University, Tel Aviv, Israel) Saos-2 (American Tissue Culture Type Collection (ATCC), HCT116 and p53 null HCT116 isogenic cells (gift of Dr. B. Vogelstein, Department of Oncology, John Hopkins University, Baltimore, Md.); ATR-DN and ATR-WT cells (gift of Dr. Paul Nghiem, University of Washington Medical School, Seattle, Wash.); Seckel syndrome cells (GM18366, Coriell); Chk2−/−MEFs and isogenic WT MEFs (gift of Dr. T. Mak, University of Toronto, Toronto); and isogenic and U2OS cells stably expressing GFP-PML IV (gift of J. Taylor, U. Wisconsin, Milwaukee, Wis.). NBST-pBabe and NBST-pBabe-NBS1 cells lines were generated by retroviral transduction of NBS-T fibroblasts using either pBabe-Puro alone or encoding full length human NBS1 (gift of J. Lukas), respectively. […] Alternately, asynchronous cell cultures were exposed to whole-cell ionizing radiation (IR)(dose range, 0-20 Gy) using a ^137Cs irradiator (MDS Nordion, Ottawa, Canada) at 1 Gy/min (on ice, aerobic conditions). […]
(§2) IF detection of proteins, live-cell imaging and fluorescence recovery after photobleaching (FRAP). […]

[2] = tested on: PML NBs in normal human diploid fibroblast (NHDF) cell line GM05757; type: cell-based
Text: as §1, §2

[3] = tested on: NHDFs; assay: BrdU incorporation (DNA synthesis) after VP16, NHDF; type: cell-based, human; details: NHDFs treated with CHX, 18 h post-VP16 treatment
Method: Cells were prepared for immunolabelling as described (Eskiw et al., 2003). To label with BrdU, cells were pulsed with 20 μM BrdU for 30 minutes, fixed in methanol for 30 minutes at −20° C. The methanol was removed and 4N HCl was added to the cells for 2 minutes at room temperature (RT). Cells were washed 3× with PBS at RT. Primary antibodies used were: mouse anti-PML, clone 5E10 (1:10)(a gift from R. van Driel, University of Amsterdam, The Netherlands), rabbit anti-PML (1:1000)(Chemicon, AB1370); rabbit anti-Sp100 (1:500)(Chemicon, Ab1380); mouse anti-RPA (1:200)(Calbiochem, RPA34-20); mouse anti-phospho-Histone H3 (ser10) (1:500)(Upstate, MC463); rabbit anti-Cyclin A (1:200)(Santa Cruz, sc-751); mouse anti-SUMO1 (1:20)(Zymed, GMP-1); mouse anti-y-H2AX (1:500)(Upstate, JBW301); mouse anti-BrdU (1:10)(BD Biosciences, clone B44). Secondary antibodies used were donkey anti-mouse or rabbit Cy3 and Cy5 (Jackson Laboratories). […] For fluorescence microscopy, coverslips were mounted on glass slides using 90% glycerol/PBS containing 1 mg/ml paraphenlenediamine and 1 μg/ml 4′,6-Diamidino-2-phenylindole (DAPI). Images were collected on a Leica Microsystems DMRA2 upright microscope equipped with a Hamamatsu ORCA-ER camera using the 63×1.32 NA oil-immersion objective. […] OpenLab 3.5.1 (Improvision) software was used to collect images, and the images were processed with Photoshop 7.0 (Adobe). […]

[4] = tested on: PML protein in NHDFs; type: cell-based, human; details: CHX 30 min prior and maintained
Text: Cell Culture and drug treatments. Cell lines used in this study: NDHFs (GM05757, Coriell Cell Repository); human AT fibroblasts (a.k.a. AT5B1, GM05823; Coriell); human NBS-T fibroblasts (gift of J. Lukas, Danish Cancer Society, Copenhagen, Denmark); human ATLD fibroblasts (gift of Y. Shiloh, Tel Aviv University, Tel Aviv, Israel) Saos-2 (American Tissue Culture Type Collection (ATCC), HCT116 and p53 null HCT116 isogenic cells (gift of Dr. B. Vogelstein, Department of Oncology, John Hopkins University, Baltimore, Md.); ATR-DN and ATR-WT cells (gift of Dr. Paul Nghiem, University of Washington Medical School, Seattle, Wash.); Seckel syndrome cells (GM18366, Coriell); Chk2−/−MEFs and isogenic WT MEFs (gift of Dr. T. Mak, University of Toronto, Toronto); and isogenic and U2OS cells stably expressing GFP-PML IV (gift of J. Taylor, U. Wisconsin, Milwaukee, Wis.). NBST-pBabe and NBST-pBabe-NBS1 cells lines were generated by retroviral transduction of NBS-T fibroblasts using either pBabe-Puro alone or encoding full length human NBS1 (gift of J. Lukas), respectively. […] Alternately, asynchronous cell cultures were exposed to whole-cell ionizing radiation (IR)(dose range, 0-20 Gy) using a ^137Cs irradiator (MDS Nordion, Ottawa, Canada) at 1 Gy/min (on ice, aerobic conditions). […] Cells were then maintained in growth medium containing kinase inhibitors for the indicated time.

[5] = tested on: PML NBs in NHDFs (GM05757); assay: Correlative LM/ESI ultrastructure of PML NBs; type: cell-based, human; details: 20 μM VP16 for 30 min, NHDF
Method: Correlative Microscopy and Electron Spectroscopic Imaging—Samples were prepared and sectioned for correlative microscopy and electron spectroscopic imaging (ESI) as previously described (Eskiw et al., 2003; Dellaire et al., 2004). Nitrogen and phosphorus maps were collected using an FEI Technai 20 transmission electron microscope fitted with an electron imaging spectrometer (Gatan). Immuno-gold labeling was accomplished using a secondary antibody conjugated to Ultra-small nanogold (donkey anti-rabbit, EMS, Cat. 25100).

[6] = tested on: NHDFs (GM05757); assay: FACS cell cycle analysis; type: cell-based, human; details: NHDFs by 18 h after VP16 treatment
Method: Cells were harvested and pelleted. The pellet was resuspended in 50 μl HBSS with 2% FBS. Cells were fixed with 1 ml ice-cold 80% ethanol for 30 minutes on ice. Cells were pelleted and resuspended in HBSS containing 0.1 mg/ml propidium iodide (Sigma) and 0.6% NP-40 to final concentration of 2×10^6 cells/ml. An equal volume of 2 mg/ml RNase in HBSS was added and incubated at room temperature in the dark for 30 minutes. This solution was then filtered through a 40 μm nylon mesh (BD Biosciences) and keep on ice until analysis. Cells were analyzed on a FACscan flowcytometer (BD Biosciences). Data analysis was performed using FlowJo 6.0 (Tree Star).

NC(=O)c1ccc2nc(-c3ccc(Oc4ccc(Cl)cc4)cc3)[nH]c2c1 [Chk2 kinase inhibitor II]
effect on PML NB number at 3 h following VP16 treatment ([1]; 10 μM Chk2 inhibitor II or 20 μM wortmannin pre-treatment, versus VP16 without inhibitor): significantly reduce
effect on the initial increase in PML NBs in response to VP16 ([1]; 10 μM inhibitor pre-treatment, 30 min time point): did not affect

C[C@@H]1C[C@@H]([C@H](O)CC2CC(=O)NC(=O)C2)C(=O)[C@@H](C)C1 [CHX, cycloheximide]
PML NB number initially, compared to untreated cells ([2]; CHX-treated NHDFs, VP16 treatment): higher number of PML NBs initially
BrdU incorporation [3]: no BrdU incorporation
effect on DNA damage-dependent increase in PML protein levels ([4]; 4 h after VP16): little effect
effect on DNA damage-dependent increase in PML protein levels ([4]; 12 h after VP16): inhibited

COc1cc([C@@H]2c3cc4c(cc3[C@@H](O[C@@H]3O[C@@H]5CO[C@@H](C)O[C@H]5[C@H](O)[C@H]3O)[C@H]3COC(=O)[C@H]23)OCO4)cc(OC)c1O [VP16, etoposide]
PML NB ultrastructure (symmetry, chromatin contacts) [5]: lose their radial symmetry and make fewer contacts with the surrounding chromatin fibres
cell cycle distribution [6]: marked accumulation in G1 and G2 phase

COc1cccc2c1C(=O)c1c(O)c3c(c(O)c1C2=O)C[C@@](O)(C(=O)CO)C[C@@H]3O[C@H]1C[C@H](N)[C@H](O)[C@H](C)O1 [doxorubicin]
time after treatment at which γ-H2AX signal and PML NB number peaked ([2]; 20 μM VP16 or 1.5 μM doxorubicin for 30 min, NHDF GM05757): 3 h
